# Data taken from patent publication US12303498B2, “ALK5 inhibitors as skeletal muscle hypertrophy inducers” (CYTOO, priority 2018, dated 2025).
# pEC50: −log10 of the molar value. Where two headings read alike, the source gives them in different places.
# Tests used:
# ACh-stimulated myotubes = experiment: Calcium flux assay after ACh stimulation; assay type: cell-based, human; conditions: for increase in [Ca2+]i peak amplitude compared to control myotubes: 20 μM ACh stimulation, myotubes differentiated 8 days, 7 days with compound
# Experimental: Cells were then incubated for 1 h with 2 μM Fluo-4 AM (F14201-Invitrogen) in an incubator (37° C., 5% CO2). After washing to remove unloaded dye, myotube responses to 20 μM ACh (A6625-Sigma-Aldrich), were videoimaged. Stream acquisitions were set at 1 sec intervals and one field of view was acquired per well. Images were processed and analyzed automatically using a dedicated software developed in-house integrating the open-source ImageJ framework. The image analysis tool segments the myotubes in images acquired in the same well. The Fluo-4 total fluorescence intensity was measured inside each myotube and corrected for background. The total intensity was normalized to the myotube area to obtain the mean fluorescence intensity readout.
# [1] = tested on: Myotubes from the healthy donor 3 atrophied by TNF-α, IL-1β, Myostatin, TGF-β or dexamethasone; experiment: Atrophy rescue assay (MyoScreen); assay type: cell-based, human; set-up: key: +++: total rescue; ++: partial rescue; +: low rescue; conditions: for atrophy rescue, IL-1: atrophy inducer IL-1β 25 ng/mL; for atrophy rescue, TGF-β: atrophy inducer TGF-β 0.5 ng/mL; for atrophy rescue, TNF-alpha: atrophy inducer TNF-α 2 ng/mL; for atrophy rescue, dexamethasone: atrophy inducer dexamethasone 100 μM; for atrophy rescue, Myostatin: atrophy inducer myostatin 150 ng/mL
# Experimental: (§1) Hypertrophy and Atrophy Rescue assays were performed using an in vitro fully automated human myotube model called MyoScreen™ (Cytoo, France). This model relies on a tight control of the microenvironment that guides the differentiation of human primary myoblasts. Myotubes formed on MyoScreen™ micropatterns present a high level of maturation together with a highly standardized morphology.
# (§2) Human primary myoblasts from donors were seeded in MyoScreen™ micropatterned 96-well plates (Cytoo, France), let them adhere for 24 h in growth medium, then run the differentiation in a low horse serum medium for at least 5 days.
# (§3) At Day 0, MyoScreen™ plates (Cytoo, France) containing micropatterns were pre-filled with 200 μl/well of growth medium and stored in the incubator at 37° C. Human primary myoblasts were detached from the flasks, count, and seeded into the plates with 15 000 cells per well in 100 μl of growth medium.
# (§4) At Day 1, the growth medium was changed for a differentiation medium, 300 μl/well (DMEM with 0.1% horse serum) in which myoblasts started differentiating and forming myotubes.
# (§5) At Day 2, the differentiation medium was changed. Then candidate compounds were diluted with differentiation medium and transferred into the plate. The final concentration of DMSO should be not higher than 0.1%. At least 6 wells were treated with the vehicle as a basal control, and 6 wells were treated with IGF-1 at 100 ng/ml as positive hypertrophy control.
# For Atrophy Rescue assay, one hour after candidate compound addition, atrophy inducers were added at the following final concentration: 150 ng/mL of myostatin, 25 ng/mL of IL-1β, 2 ng/mL of TNF-α, 0.5 ng/mL of TGF-β and 100 μM of dexamethasone.
# (§6) At Day 6, cells were fixed with formalin 5% for 30 min at room temperature, then permeabilized with Triton X-100 at 0.1% in PBS for 15 min, and blocked with PBS+BSA 1% for 20 minutes. Myotubes were incubated with first antibody against Troponin T in blocking buffer for 1 h30, washed three times with PBS, incubated with secondary antibody and Hoescht ( 1/10000) for 1 h30, and washed three times with PBS.
# (§7) Images were acquired at 10× magnification with an Operetta High Content Imaging System. Image processing and analysis were performed with dedicated algorithms developed on the Acapella High Content Imaging Software (Perkin Elmer) by CYTOO. Eleven fields per well were acquired.
# (§8) First, segmentation of myotubes and nuclei were done using respectively the Troponin T staining intensity and the Hoechst staining. One to two myotubes per micropattern were usually identified (a myotube is a troponin T staining area that includes at least 2 nuclei). The threshold of segmentation was set-up in order to avoid detecting the background noise and eliminate aberrant small myotube structures. At the end of this first step, specific readouts were calculated in the whole well, like the nuclei count and the fusion index (percentage of nuclei included in troponin T staining) Usually around 50 to 60 myotubes were detected per well in a control condition.
# (§9) Then, an image clean-up step was performed on the Troponin T images in order to remove myotubes that touch the border of the image. The final valid myotubes were used to extract myotube morphology parameters including the myotube width and area, and the number of nuclei per myotube.
# Atrophy Rescue assays were performed in triplicate in the presence of atrophy inducers, i.e. TNF-α, IL-1β, Myostatin, TGF-β and dexamethasone.
# Atrophy rescue assays was performed for RepSox. Myotubes from the healthy donor 3 were atrophied using different inducers: TNF-α, IL-1β, Myostatin, TGF-β and dexamethasone.
# [2] = tested on: AChR clusters in MyoScreen myotubes; experiment: Acetylcholine receptor clustering assay; assay type: cell-based, human; conditions: 8 days of differentiation including 7 days of drug treatment; for total AChR area increase: vs control myotubes
# Experimental: The MyoScreen™ protocol was performed as described in the Hypertrophy and Atrophy rescue assay described in Example 1 but was stopped at Day 9 instead of Day 6. At the end of the assay, AchR were immunostained using a specific antibody in addition to Troponin T and nuclei. Images were acquired at ×20 with an Operetta High Content Imaging System from Perkin Elmer. Image processing and analyses were performed with a dedicated algorithm developed on the Acapella High Content Imaging Software (Perkin Elmer). Specific readouts were calculated in each well: nuclei count and myotube fusion index, number of AchR, AchR mean area, AchR total area normalized by the myotube total area.
# Remarkably, when labeled with a specific anti-AChR antibody, MyoScreen myotubes at 6 days post-differentiation display AChR clusters punctuated along the sarcolemma membrane in the middle of the myotube fibre and in distinct regions at the ends of myotubes. To develop an automated AChR cluster assay, an AChR detection routine was developed that was sensitive and robust enough to analyze aggregate number and size clusters in images using the Operetta/Acapella system.
# [3] = tested on: cells from DMD donors (Donor Z, W and D1); experiment: MyoScreen hypertrophy assay on myotubes from DMD donors; assay type: cell-based, human; conditions: fusion index (compound)*100/basal control; for Donor D1 (% Activity): DMD Donor D1; for Donor W (% Activity): DMD Donor W; for Donor Z (% Activity): DMD Donor Z
# Experimental: (§10) Healthy donor primary skeletal cells (Donor 1, Donor 3 and Donor 5) were Clonetics™ Human Skeletal Muscle Myoblasts (HSMM). In addition, cells from three DMD (Duchenne muscular dystrophy) donors (Donor Z, W and D1) and from a healthy donor (Donor A) were sourced.
# as §1, §2, §3, §4, §5, §6, §7, §8, §9
# [4] = tested on: Human primary myoblasts (healthy donors 3, 1 and 5); experiment: MyoScreen hypertrophy assay on myotubes from healthy donors; assay type: cell-based; conditions: for pEC50 / activity at 10 µM: Homo sapiens, Myoblast
# Experimental: as §10, §1, §2, §3, §4, §5, §6, §7
# First, segmentation of myotubes and nuclei were done using respectively the Troponin T staining intensity and the Hoechst staining. […] The threshold of segmentation was set-up in order to avoid detecting the background noise and eliminate aberrant small myotube structures.
# as §9
# Nuclei Count, Fusion Index, Mean myotube Area and Number of nuclei per myotube have been validated as relevant and sensitive readouts of myotube differentiation as well as atrophic and hypertrophic induction.
# A primary screening was run to identify hypertrophy compounds that increase the myotube differentiation and size. Candidate compounds were tested at 10 μM in monoplicate on Donor 3 cells.
# A retest was run, by cherry picking (same compound batch as primary screening): each hit was tested in the same conditions as in the Primary Screening (Donor 3, 10 μM) in six well replicates.
# [5] = tested on: myotubes stimulated with 100 μM ACh; experiment: Contractile activity assay; assay type: cell-based, human; conditions: 5 days of differentiation including 4 days (96 h) treatment, RepSox 2 μM
# Experimental: Cells were washed with calcium buffer as above. Myotube contraction was induced by addition of 100 μM ACh for 3 mins after which myotubes were fixed and immunostained with troponin T antibody. Automated acquisition was performed on the Operetta platform with a x10/0.3 NA objective. Detaching myotubes were automatically detected and quantified using Acapella, based on the detection of high intensity regions within the edges of segmented myotubes that mark the spots where the myotubes detached.
# [6] = tested on: Donor Z (DMD donor) myotubes; experiment: Hypertrophy assay, combinations ALK5 inhibitor and glucocorticoid; assay type: cell-based, human; conditions: 4 days of treatment, prednisolone 10 nM, RepSox or GW788388 300 nM, alone or combined
# [7] = tested on: Myotubes from Donors 5 and A
# Description: Cells were washed with calcium buffer containing (in mM): 130 NaCl, 5.4 KCl, 1.8 CaCl2, 0.8 MgCl2, 5.6 D-glucose, 10 Hepes, pH 7.4. […] After washing to remove unloaded dye, myotube responses to electrical stimulation pulses were monitored using the FDSS/μCELL/EFS from Hamamatsu Photonics. Twitch stimulations were run at 0.2 Hz with pulse width 50 ms 5V for 60 seconds. Tetanus stimulation was run at 30 Hz with pulse width 15 ms 3V for 20 seconds. The Fluo-4 total fluorescence intensity is measured in each well. For data presentation, fluorescence intensities (F) were normalized to the mean intensity of the first timepoints (F/F0).
# [8] = first dose response assay, healthy Donor 1
# [9] = first dose response assay, healthy Donor 3
# [10] = first dose response assay, healthy Donor 5
# [11] = second dose response assay, healthy Donor 3
# [12] = second dose response assay, healthy Donor 3, read-out: EC50
compound,measurement,setting,value
IGF-1: IGF-1 at 100 ng/ml as positive hypertrophy control,increase in [Ca2+]i peak amplitude compared to control myotubes,ACh-stimulated myotubes,no effect
same,"atrophy rescue, IL-1",[1],+++
same,"atrophy rescue, TGF-β",[1],++
same,"atrophy rescue, TNF-alpha",[1],+++
same,"atrophy rescue, dexamethasone",[1],+++
same,"atrophy rescue, Myostatin",[1],+++
same,total AChR area increase,[2],no effect
same,Donor D1 (% Activity),[3],163%
same,Donor W (% Activity),[3],100%
same,Donor Z (% Activity),[3],143%
same,Donor 1 % Activity,[4]; [8],150%
same,Donor 3 % Activity,[4]; [9],178%
same,Donor 5 % Activity,[4]; [10],185%
same,Primary screening (% Activity),"[4]; healthy Donor 3, 10 μM, monoplicate (IGF-1 100 ng/ml), % Activity = Myotube fusion index (compound)*100/Myotube Fusion index (basal control)",210%
same,Retest (% Activity),"[4]; healthy Donor 3, 10 μM, six well replicates (IGF-1 100 ng/ml), fusion index vs basal control",190%
same,% Activity,[4]; [11],178%
same,active contractile force (percentage of myotubes that exhibit strong contractions),[5],67±5%
same,increase in Fusion index,[6],160%
same,increase in Myotube mean area,[6],54%
Cc1cccc(-c2n[nH]cc2-c2ccc3ncccc3n2)n1 [RepSox],increase in [Ca2+]i peak amplitude compared to control myotubes,ACh-stimulated myotubes,1.56 fold
same,number of retracting myotubes after ACh stimulation,ACh-stimulated myotubes; calcium flux time-lapse videos,marked increase
same,"atrophy rescue, IL-1",[1],++
same,"atrophy rescue, TGF-β",[1],+++
same,"atrophy rescue, TNF-alpha",[1],++
same,"atrophy rescue, dexamethasone",[1],+++
same,"atrophy rescue, Myostatin",[1],+++
same,AChR clusters,[2],substantially more AChR clusters
same,total AChR area increase,[2],6 fold
same,Donor D1 (% Activity),[3],210%
same,Donor W (% Activity),[3],120%
same,Donor Z (% Activity),[3],176%
same,activity in dose responses on three healthy donors,"[4]; Donors 3, 5 and 1",active on all donors
same,pEC50,"[4]; first dose response assay, healthy Donor 1, read-out: Donor 1 EC50",6.25
same,pEC50,"[4]; first dose response assay, healthy Donor 3, read-out: Donor 3 EC50",8.30
same,pEC50,"[4]; first dose response assay, healthy Donor 5, read-out: Donor 5 EC50",8.60
same,activity at 10 µM,"[4]; healthy Donor 3, 10 μM, monoplicate (IGF-1 100 ng/ml), % Activity = Myotube fusion index (compound)*100/Myotube Fusion index (basal control), read-out: Primary screening (% Activity)",183%
same,activity at 10 µM,"[4]; healthy Donor 3, 10 μM, six well replicates (IGF-1 100 ng/ml), fusion index vs basal control, read-out: Retest (% Activity)",171%
same,pEC50,[4]; [12],8.30
same,Donor 1 % Activity,[4]; [8],143%
same,Donor 3 % Activity,[4]; [9],140%
same,Donor 5 % Activity,[4]; [10],204%
same,increase in the fusion index or/and myotube area readouts,"[4]; primary screening and retest, Donor 3, 10 μM",> 170%
same,% Activity,[4]; [11],140%
same,increase in Fusion index,[6],100%
same,increase in Myotube mean area,[6],68%
same,tetanus response,"[7]; Donor 5 myotubes, RepSox 3 to 500 nM, tetanus stimulation 30 Hz, vs Control myotubes",increases with RepSox concentrations
same,calcium peak amplitude on repeated twitch electrical stimulations,"[7]; Donor A and Donor 5 myotubes, RepSox 300 nM for 5 days, twitch 0.2 Hz",twice higher
"C[C@]12C=CC(=O)C=C1CC[C@@H]1[C@@H]2[C@@H](O)C[C@@]2(C)[C@H]1CC[C@]2(O)C(=O)CO [Prednisolone, prednisolone]",increase in Fusion index,[6],25%
same,increase in Myotube mean area,[6],does not enhance significantly
Cc1cccc(-c2nn(C(=S)Nc3ccccc3)cc2-c2ccnc3ccccc23)n1 [A 83-01],pEC50,[4]; [12],8.00
same,% Activity,[4]; [11],127%
NC(=O)c1ccc(-c2nc(-c3ccccn3)c(-c3ccc4c(c3)OCCO4)[nH]2)cc1 [D 4476],pEC50,[4]; [12],> 9.00
same,% Activity,[4]; [11],128%
Cc1cccc(-c2[nH]c(C(C)(C)C)nc2-c2ccc3c(c2)OCO3)n1 [SB 505124],pEC50,[4]; [12],> 9.00
same,% Activity,[4]; [11],136%
Fc1ccc(Cl)cc1-c1nc(Nc2ccncc2)c2nccnc2n1 [SD208],pEC50,[4]; [12],7.19
same,% Activity,[4]; [11],138%
c1ccc(-c2n[nH]cc2-c2ccnc3ccccc23)nc1 [LY 364947],pEC50,[4]; [12],7.60
Cc1cccc(-c2nc(C(C)(C)C)[nH]c2-c2ccc3nccnc3c2)n1 [SB 525334],pEC50,[4]; [12],8.52
same,% Activity,[4]; [11],142%
Cc1cccc(-c2n[nH]cc2-c2ccc(F)c(-c3cnn(CCO)c3)c2)n1 [R268712],pEC50,[4]; [12],9.00
same,% Activity,[4]; [11],132%
O=C(NC1CCOCC1)c1ccc(-c2cc(-c3c[nH]nc3-c3ccccn3)ccn2)cc1 [GW 788388],Donor W (% Activity),[3],118%
same,Donor Z (% Activity),[3],196%
same,pEC50,[4]; [12],7.06
same,% Activity,[4]; [11],130%
